Measurements taken from the NIST ThermoML archive (doi:10.1016/j.jct.2015.01.004).
Values joined by “and” are separate entries in the source; they are usually repeats but may differ in a detail not shown here. Equal values may be shown once. ± gives the expanded uncertainty stated by the source.

Experiment: molar heat capacity at constant pressure; xn = mol fraction of the nth substance listed
Conditions: 100 kPa

[Si] [silicon] + [Li]
Conditions	molar heat capacity at constant pressure
127.62 K, Crystal of intercomponent compound 2, relaxation calorimeter, x2 = 0.804	12.78 ± 0.52 J/K/mol
127.64 K, Crystal of intercomponent compound 2, relaxation calorimeter, x2 = 0.804	12.84 ± 0.52 J/K/mol
130 K, Crystal of intercomponent compound 1, relaxation calorimetry + DSC, x2 = 0.81	12.64 ± 0.51 J/K/mol
130 K, Crystal of intercomponent compound 2, relaxation calorimetry + DSC, x2 = 0.804	13.04 ± 0.53 J/K/mol
131.69 K, Crystal of intercomponent compound 1, relaxation calorimetry, x2 = 0.81	12.88 ± 0.52 J/K/mol
131.69 K, Crystal of intercomponent compound 2, relaxation calorimeter, x2 = 0.804	13.22 ± 0.54 J/K/mol
131.71 K, Crystal of intercomponent compound 2, relaxation calorimeter, x2 = 0.804	13.3 ± 0.54 J/K/mol
135.76 K, Crystal of intercomponent compound 1, relaxation calorimetry, x2 = 0.81	13.31 ± 0.54 J/K/mol
135.76 K, Crystal of intercomponent compound 2, relaxation calorimeter, x2 = 0.804	13.64 ± 0.55 J/K/mol
135.78 K, Crystal of intercomponent compound 2, relaxation calorimeter, x2 = 0.804	13.71 ± 0.56 J/K/mol
139.83 K, Crystal of intercomponent compound 1, relaxation calorimetry, x2 = 0.81	13.71 ± 0.56 J/K/mol
139.83 K, Crystal of intercomponent compound 2, relaxation calorimeter, x2 = 0.804	14.04 ± 0.57 J/K/mol
139.85 K, Crystal of intercomponent compound 2, relaxation calorimeter, x2 = 0.804	14.09 ± 0.57 J/K/mol
140 K, Crystal of intercomponent compound 1, relaxation calorimetry + DSC, x2 = 0.81	13.65 ± 0.55 J/K/mol
140 K, Crystal of intercomponent compound 2, relaxation calorimetry + DSC, x2 = 0.804	14.07 ± 0.57 J/K/mol
143.86 K, Crystal of intercomponent compound 1, relaxation calorimetry, x2 = 0.81	14.08 ± 0.57 J/K/mol
143.87 K, Crystal of intercomponent compound 2, relaxation calorimeter, x2 = 0.804	14.45 ± 0.59 J/K/mol
143.88 K, Crystal of intercomponent compound 2, relaxation calorimeter, x2 = 0.804	14.5 ± 0.59 J/K/mol
147.97 K, Crystal of intercomponent compound 1, relaxation calorimetry, x2 = 0.81	14.51 ± 0.59 J/K/mol
147.98 K, Crystal of intercomponent compound 2, relaxation calorimeter, x2 = 0.804	14.83 ± 0.6 J/K/mol
147.99 K, Crystal of intercomponent compound 2, relaxation calorimeter, x2 = 0.804	14.94 ± 0.61 J/K/mol
150 K, Crystal of intercomponent compound 1, relaxation calorimetry + DSC, x2 = 0.81	14.58 ± 0.59 J/K/mol
150 K, Crystal of intercomponent compound 2, relaxation calorimetry + DSC, x2 = 0.804	15.01 ± 0.61 J/K/mol
152 K, Crystal of intercomponent compound 1, relaxation calorimetry, x2 = 0.81	14.84 ± 0.6 J/K/mol
152 K, Crystal of intercomponent compound 2, relaxation calorimeter, x2 = 0.804	15.17 ± 0.62 J/K/mol
152.02 K, Crystal of intercomponent compound 2, relaxation calorimeter, x2 = 0.804	15.29 ± 0.62 J/K/mol
156.1 K, Crystal of intercomponent compound 1, relaxation calorimetry, x2 = 0.81	15.17 ± 0.62 J/K/mol
156.1 K, Crystal of intercomponent compound 2, relaxation calorimeter, x2 = 0.804	15.54 ± 0.63 J/K/mol
156.12 K, Crystal of intercomponent compound 2, relaxation calorimeter, x2 = 0.804	15.62 ± 0.63 J/K/mol
160 K, Crystal of intercomponent compound 1, relaxation calorimetry + DSC, x2 = 0.81	15.43 ± 0.63 J/K/mol
160 K, Crystal of intercomponent compound 2, relaxation calorimetry + DSC, x2 = 0.804	15.88 ± 0.65 J/K/mol
160.12 K, Crystal of intercomponent compound 1, relaxation calorimetry, x2 = 0.81	15.52 ± 0.63 J/K/mol
160.13 K, Crystal of intercomponent compound 2, relaxation calorimeter, x2 = 0.804	15.86 ± 0.64 J/K/mol
160.14 K, Crystal of intercomponent compound 2, relaxation calorimeter, x2 = 0.804	15.96 ± 0.65 J/K/mol
164.23 K, Crystal of intercomponent compound 1, relaxation calorimetry, x2 = 0.81	15.85 ± 0.64 J/K/mol
164.23 K, Crystal of intercomponent compound 2, relaxation calorimeter, x2 = 0.804	16.22 ± 0.66 J/K/mol
164.24 K, Crystal of intercomponent compound 2, relaxation calorimeter, x2 = 0.804	16.27 ± 0.66 J/K/mol
168.29 K, Crystal of intercomponent compound 1, relaxation calorimetry, x2 = 0.81	16.17 ± 0.66 J/K/mol
168.29 K, Crystal of intercomponent compound 2, relaxation calorimeter, x2 = 0.804	16.53 ± 0.67 J/K/mol
168.31 K, Crystal of intercomponent compound 2, relaxation calorimeter, x2 = 0.804	16.6 ± 0.67 J/K/mol
170 K, Crystal of intercomponent compound 1, relaxation calorimetry + DSC, x2 = 0.81	16.22 ± 0.66 J/K/mol
170 K, Crystal of intercomponent compound 2, relaxation calorimetry + DSC, x2 = 0.804	16.67 ± 0.68 J/K/mol
172.36 K, Crystal of intercomponent compound 1, relaxation calorimetry, x2 = 0.81	16.41 ± 0.67 J/K/mol
172.36 K, Crystal of intercomponent compound 2, relaxation calorimeter, x2 = 0.804	16.79 ± 0.68 J/K/mol
172.38 K, Crystal of intercomponent compound 2, relaxation calorimeter, x2 = 0.804	16.9 ± 0.69 J/K/mol
176.43 K, Crystal of intercomponent compound 1, relaxation calorimetry, x2 = 0.81	16.71 ± 0.68 J/K/mol
176.43 K, Crystal of intercomponent compound 2, relaxation calorimeter, x2 = 0.804	17.06 ± 0.69 J/K/mol and 17.19 ± 0.7 J/K/mol
180 K, Crystal of intercomponent compound 1, relaxation calorimetry + DSC, x2 = 0.81	16.94 ± 0.69 J/K/mol
180 K, Crystal of intercomponent compound 2, relaxation calorimetry + DSC, x2 = 0.804	17.39 ± 0.71 J/K/mol
180.45 K, Crystal of intercomponent compound 1, relaxation calorimetry, x2 = 0.81	16.95 ± 0.69 J/K/mol
180.45 K, Crystal of intercomponent compound 2, relaxation calorimeter, x2 = 0.804	17.33 ± 0.7 J/K/mol
180.46 K, Crystal of intercomponent compound 2, relaxation calorimeter, x2 = 0.804	17.44 ± 0.71 J/K/mol
184.56 K, Crystal of intercomponent compound 2, relaxation calorimeter, x2 = 0.804	17.58 ± 0.71 J/K/mol
184.57 K, Crystal of intercomponent compound 1, relaxation calorimetry, x2 = 0.81	17.2 ± 0.7 J/K/mol
184.57 K, Crystal of intercomponent compound 2, relaxation calorimeter, x2 = 0.804	17.69 ± 0.72 J/K/mol
188.58 K, Crystal of intercomponent compound 2, relaxation calorimeter, x2 = 0.804	17.84 ± 0.72 J/K/mol
188.59 K, Crystal of intercomponent compound 1, relaxation calorimetry, x2 = 0.81	17.45 ± 0.71 J/K/mol
188.59 K, Crystal of intercomponent compound 2, relaxation calorimeter, x2 = 0.804	17.97 ± 0.73 J/K/mol
190 K, Crystal of intercomponent compound 1, relaxation calorimetry + DSC, x2 = 0.81	17.6 ± 0.71 J/K/mol
190 K, Crystal of intercomponent compound 2, relaxation calorimetry + DSC, x2 = 0.804	18.05 ± 0.73 J/K/mol
192.69 K, Crystal of intercomponent compound 1, relaxation calorimetry, x2 = 0.81	17.73 ± 0.72 J/K/mol
192.69 K, Crystal of intercomponent compound 2, relaxation calorimeter, x2 = 0.804	18.09 ± 0.73 J/K/mol
192.71 K, Crystal of intercomponent compound 2, relaxation calorimeter, x2 = 0.804	18.27 ± 0.74 J/K/mol
196.74 K, Crystal of intercomponent compound 2, relaxation calorimeter, x2 = 0.804	18.32 ± 0.74 J/K/mol
196.78 K, Crystal of intercomponent compound 1, relaxation calorimetry, x2 = 0.81	17.96 ± 0.73 J/K/mol
196.78 K, Crystal of intercomponent compound 2, relaxation calorimeter, x2 = 0.804	18.47 ± 0.75 J/K/mol
200 K, Crystal of intercomponent compound 1, relaxation calorimetry + DSC, x2 = 0.81	18.2 ± 0.74 J/K/mol
200 K, Crystal of intercomponent compound 2, relaxation calorimetry + DSC, x2 = 0.804	18.65 ± 0.76 J/K/mol
200.77 K, Crystal of intercomponent compound 2, relaxation calorimeter, x2 = 0.804	18.54 ± 0.75 J/K/mol
200.8 K, Crystal of intercomponent compound 1, relaxation calorimetry, x2 = 0.81	18.22 ± 0.74 J/K/mol
200.8 K, Crystal of intercomponent compound 2, relaxation calorimeter, x2 = 0.804	18.74 ± 0.76 J/K/mol
204.91 K, Crystal of intercomponent compound 2, relaxation calorimeter, x2 = 0.804	18.8 ± 0.76 J/K/mol
204.92 K, Crystal of intercomponent compound 1, relaxation calorimetry, x2 = 0.81	18.43 ± 0.75 J/K/mol
204.93 K, Crystal of intercomponent compound 2, relaxation calorimeter, x2 = 0.804	18.97 ± 0.77 J/K/mol
208.92 K, Crystal of intercomponent compound 2, relaxation calorimeter, x2 = 0.804	19.05 ± 0.77 J/K/mol
208.93 K, Crystal of intercomponent compound 1, relaxation calorimetry, x2 = 0.81	18.63 ± 0.76 J/K/mol
208.94 K, Crystal of intercomponent compound 2, relaxation calorimeter, x2 = 0.804	19.19 ± 0.78 J/K/mol
210 K, Crystal of intercomponent compound 1, relaxation calorimetry + DSC, x2 = 0.81	18.76 ± 0.76 J/K/mol
210 K, Crystal of intercomponent compound 2, relaxation calorimetry + DSC, x2 = 0.804	19.19 ± 0.78 J/K/mol
213.04 K, Crystal of intercomponent compound 2, relaxation calorimeter, x2 = 0.804	19.24 ± 0.78 J/K/mol
213.05 K, Crystal of intercomponent compound 1, relaxation calorimetry, x2 = 0.81	18.87 ± 0.77 J/K/mol
